Measurements published in ChEMBL document CHEMBL1122534, “Synthesis of 4-substituted 2H-naphth[1,2-b]-1,4-oxazines, a new class of dopamine agonists” (J Med Chem, 1984).

Molecular target: Dopamine receptor (Rattus norvegicus) (UniProt P25115+P19020+P30729+P18901+P61169)
Experiment: ED50 for induction of contralateral turning behavior in 6-hydroxydopamine (6-OHDA) lesioned rats by ip administration.
Assay type: functional, organism-based

Structure (SMILES) | ED50
c1ccc2c(c1)CC[C@H]1NCCOC21 (some centres not stated) | 30 mg/kg
CCN1CCOC2c3ccccc3CC[C@H]21 (some centres not stated) | 1.7 mg/kg
